The values that follow come from paper PMC4441091 (Chemical & pharmaceutical bulletin, 2014).

pIC50: −log10 of the molar value.

The target in one assay is T1, FASN-TE; rTE (recombinant TE domain of human FASN) (Homo sapiens, UniProt P49327). The assay is described as follows: fluorogenic thioesterase assay. The class given is biochemical.
T1 sequence (P49327 2218-2511 limits assumed): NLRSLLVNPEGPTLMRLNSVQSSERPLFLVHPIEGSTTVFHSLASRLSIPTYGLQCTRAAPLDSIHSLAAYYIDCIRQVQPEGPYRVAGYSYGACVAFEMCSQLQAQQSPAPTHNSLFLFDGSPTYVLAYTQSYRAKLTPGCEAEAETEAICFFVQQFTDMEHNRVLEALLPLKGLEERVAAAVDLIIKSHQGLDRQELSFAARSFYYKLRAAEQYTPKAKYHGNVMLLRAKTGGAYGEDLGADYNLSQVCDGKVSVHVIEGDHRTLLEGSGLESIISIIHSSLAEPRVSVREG
Conditions: not given
As to `O=C1C=CC(=O)c2c(O)ccc(O)c21` [1i, naphthazarin], the pIC50 was 5.46.

The target in a further assay is T1, FASN-TE; rTE (recombinant TE domain of human FASN). Nature of the assay: fluorogenic thioesterase assay. The class given is biochemical.
Conditions: not given
The source holds these as a separate data set.
As for `CCCCCCCSC1=CC(=O)C=CC1=O` [2f, 2-(Heptylthio)cyclohexa-2,5-diene-1,4-dione], the pIC50 is 5.21.

Take `O=C1C=C(N2CCOCC2)C(=O)c2c(O)cccc21` [1h, 8-Hydroxy-2-morpholinonaphthalene-1,4-dione]: the pIC50 was 4.58.

For `O=C1C=CC(=O)c2c(O)cccc21` [1g, juglone], the pIC50 is 7.00.

Take `CC1=CC(=O)c2c(O)cccc2C1=O` [1d, plumbagin]: the pIC50 is 4.96.

For the compound `CC1=CC(=O)c2ccccc2C1=O` [1c, menadione], the pIC50 was 4.66.

`O=C1C=CC(=O)C(SC2CCCC2)=C1` [2e, 2-(Cyclopentylthio)cyclohexa-2,5-diene-1,4-dione]: the pIC50 was 5.19.

For `O=C1C=CC(=O)C(Sc2ccccc2)=C1` [2g, 2-(Phenylthio)cyclohexa-2,5-diene-1,4-dione], the pIC50 was 6.70.

Still in this assay, the particulars now being: read-out: rTE IC50; substrate 4-methylumbelliferyl heptanoate.
In the case of `CC1=C(Br)C(=O)c2ccccc2C1=O` [1a, NS-4390], the pIC50 is 4.90.

What is called pIC50 is the IC50 on a negative log10 scale, so that one unit is a factor of ten.
